The subject of one assay is mouse myoblast cells. Kind of assay: In vitro cell-based drug screening of mouse myoblast cells with machine-learning biological age prediction. More on the design: species or system C57BL/6J mice. To be noted: for Change relative to control: average predicted age of treatment vs vehicle control wells on the same plate, concentrations of Table 8; for Average predicted age of treatment (months): primary myoblasts, concentrations of Table 8: Oxytocin 30 nM, TGFbeta 10 ng/mL, Wnt3a 100 ng/ml, Klotho 0.5 μg/mL, ALK5 inhibitor II 0.5 μM, PP242 300 nM, stained 48 hours post-plating. How it is done:
The machine learning systems and methods for predicting biological age were applied toward accelerating drug screens designed to detect interventions that slow or reverse one or more phenotypes of aging. Such a drug screening approach was tested using proof-of-concept drug screens, including an in vitro drug screening experimental model. This machine learning-based drug screening approach for aging-related therapies is described below. The machine learning-based mouse myoblast cellular aging approach was used to test an in vitro screening model for detecting anti-aging molecules for myoblasts.
The myoblast cell screening was run in parallel with the myoblast biological age prediction described in Example 3, and the same processes for primary cell acquisition, preparation, processing, and image acquisition steps were performed as described in Example 3.
For myoblast screening, replicate 384-well plates were dedicated to testing compound treatments (Treatment Plates) and were seeded with primary myoblasts, replicating the same plate layout as the myoblast age prediction experiment described in Example 3.
For the Treatment Plates, after the cells adhere to the plate (around 2 hours post-plating) the media was changed. For each set of 10 replicate wells from each primary myoblast line, 4 of the wells received media supplemented with vehicle control, 3 wells received media supplemented with one test compound, and 3 wells received media supplemented with another test compound. In this manner, each Treatment Plate was used to test two different compounds, and three Treatment Plates were used in total to test six different compounds.
All Treatment Plates were fed 24 hours post-plating with myoblast growth media supplemented with drugs or their respective vehicle control.
As mentioned, the plates are handled, processed, and stained in the same way as described in the myoblast biological age prediction described in Example 3. Briefly, these plates were stained for EdU, desmin, ER cytopainter, and counterstained with Hoechst.
Next, the data were prepared using a similar process as that described in Example 3. This created a treatment dataset that was analyzed using a previously generated aging model, which was trained on the aging dataset that was generated as described in Example 3.
Next, the data was analyzed using a similar deep convolutional neural network architecture and the machine learning analysis approach described in Example 1. First, the deep convolutional neural network architecture was trained using the aging dataset and the machine learning analysis approach described in Example 1. Performing this training yields a final set of weights to use with the neural network for the treatment analysis. Second, the effects of the treatments were analyzed by applying the generated neural network to the entirety of the treatment dataset. This is subsequently referred to as a “transference” of the aging model to the treatment data.
Next, as described in Example 6, average age predictions for each mouse were produced by predicting the biological age classification for each tile and averaging all tiles' predictions together. This calculation was performed for all three folds of the data, and those average predictions were then averaged together again. This produced a single numerical biological age prediction for each mouse, which was compared to control.
Next, as described in Example 6, p-values were calculated using the Kolmogorov-Smirnov test to assess the statistical difference of the distributions of age predictions for each compound versus control. Note that in this case, because there are multiple plates being tested, each with different test compounds, each compound is compared only to the control wells on its own plate, thereby resulting in different control values for each compound, as shown in Table 9.

Another assay deals with mouse skin tissue. Kind of assay: In vivo tissue-based drug screening of mouse skin tissue with machine-learning biological age prediction. Also noted: species or system C57BL/6J mice. Conditions: daily topical application for 61 days. On the procedure: The machine learning systems and methods for predicting biological age were applied toward accelerating drug screens designed to detect interventions that slow or reverse one or more phenotypes of aging. Such a drug screening approach was tested using proof-of-concept drug screens, including an in vivo drug screening experimental model. This machine learning-based drug screening approach for aging-related therapies is described below. The machine learning-based skin tissue aging modeling approach was used to test an in vivo screening system for detecting topical anti-aging interventions on mouse skin.
Mouse skin tissue samples were acquired and prepared as follows. Skin samples were collected from 75 healthy C57BL/6J mice in five separate groups: 15 mice in a control group were 10 months old (“Control 1”), 15 mice in another control group were 14 months old (“Control 2”), 15 mice in a third control group were 18 months old (“Control 3”), and two independent treatment groups comprised 18-month-old mice (“Test Article 1” and “Test Article 2”). Each treatment group included 15 mice given a daily topical application for 61 days, as detailed below. All mouse ages are referenced from the start of the experiment.
The mice were shaved as necessary on a weekly basis in order to enable daily topical application on the back of the mice. […]

In the case of `CC[C@H](C)[C@@H]1NC(=O)[C@H](Cc2ccc(O)cc2)NC(=O)[C@@H](N)CSSC[C@@H](C(=O)N2CCC[C@H]2C(=O)N[C@@H](CC(C)C)C(=O)NCC(N)=O)NC(=O)[C@H](CC(N)=O)NC(=O)[C@H](CCC(N)=O)NC1=O` [Oxytocin], in the assay with mouse myoblast cells, the “Change relative to control” value is recorded as −0.92% and the “Average predicted age of treatment (months)” value is recorded as 67.66 months.
On to Wnt3a, for which, in the assay with mouse myoblast cells, the “Change relative to control” value is recorded as −5.04% and the “Average predicted age of treatment (months)” value is listed as 64.11 months.
With `Cc1cccc(-c2[nH]ncc2-c2ccc3ncccc3n2)n1` [ALK5 inhibitor II], in the assay on mouse myoblast cells, the “Change relative to control” value is −14.13% and the “Average predicted age of treatment (months)” value is 56.22 months.
On the same counts, the results for `CC(C)n1nc(-c2cc3cc(O)ccc3[nH]2)c2c(N)ncnc21` [PP242] are −17.14% and 56.16 months.
`CC1=C(/C=C/C(C)=C/C=C/C(C)=C/C(=O)O)C(C)(C)CCC1` [Test Article 1, All Trans Retinoic Acid]: the “Average predicted age (months)” value in the assay with mouse skin tissue (18-month-old mice, HES-stained skin biopsies, averaged over tiles, three folds and mice) is 15.9 months. Also, the “Change relative to control group” value with mouse skin tissue (average predicted age vs control group (averaged across control groups 1-3)) was −7.28%.

The values above are taken from patent US10886008B2, “Methods and systems for determining the biological age of samples” (Spring Discovery, Inc., priority 2018, dated 2021).
